PMC7969469 (Cancer research, 2021)

System: invadopodia formation
Experiment: Invadopodia formation with ROCK inhibitor
Format: cell-based
Settings: ROCK inhibition, Supplementary Figure S6C

O=S(=O)(c1cccc2cnccc12)N1CCCNCC1 [Fasudil]
effect on invadopodia formation: affected neither
